These results are taken from patent US10195185B2, “3-(1H-imidazo[4,5-C]pyridin-2-yl)-1H-pyrazolo[4,3-B]pyridines and therapeutic uses thereof” (Samumed, LLC, priority 2015, dated 2019).

Holding throughout (format): cell-based
Assay [1] relates to IL-6 in human monocyte cell line (THP-1 cells). Briefly: IL-6 inhibition in LPS-stimulated THP-1 cells (HTRF). Particulars: IL-6 in LPS-stimulated THP-1 cells, HTRF. The procedure:
Human monocyte cell line (THP-1 cells; Catalog # TIB-202, ATCC, Manassas, Va.) were cultured in Roswell Park Memorial Institute (RPMI) 1640 Medium (Catalog #21870-100, Buffalo, N.Y.) with 1% L-glutamine, 1% HEPES, 1% Sodium Pyruvate, 2% Sodium Bicarbonate supplemented with 100 units/mL penicillin, 50 μg/mL streptomycin, 2-mercaptoethanol (0.05 mM) [basal medium] and 10% fetal bovine serum (Catalog #16140089, Life Technologies, Carlsbad, Calif.) at 37° C. and 5% CO2.
THP-1 cells were cultured in basal media with 1% FBS for 24 hours before the start of the assay. Each compound was dissolved in DMSO as a 10 mM stock and used to prepare compound source plates. Serial dilution (1:3, 10-point dose-response curves starting from 10 μM) and compound transfer was performed using the ECHO 550 (Labcyte, Sunnyvale, Calif.) into 384-well white low volume assay plates (Greiner Bio-One) with appropriate DMSO backfill for a final DMSO concentration of 0.1%. THP-1 cells were plated at 5000 cells/well in the 384-well plates and incubated at 37° C. for 2 h. 500 ng/mL of LPS was added after 2 hours and cells were incubated for another 22 hours at 37° C. Plates were spun in a centrifuge for 1 minute at […] and a mixture of anti-IL6 XL665, and anti-IL6 Cryptate diluted in reconstitution buffer (Cisbio Inc.) was added to each well. Following incubation for 3 hrs at room temperature, Homogeneous Time-Resolved Fluorescence (HTRF) was measured using the Envision (Perkin Elmer) at 665 nm and […]. The ratio of fluorescence at 665 nm to 620 nm was used as a readout for IL6 quantification. All samples were processed in duplicate. Readings were normalized to DMSO treated cells and normalized activities were utilized for EC50 calculations using the dose-response log (inhibitor) vs. response-variable slope (four parameters) nonlinear regression feature available in GraphPad Prism 5.0 (or Dotmatics). For EC50 of >10 μM, the percent inhibition at 10 μM is provided.
In general terms: TR-FRET usually uses a lanthanide donor and a delayed reading to cut background.

Assay [2] has as its system Primary human fibroblasts derived from IPF patients (LL29 cells) treated with TGF-β1. Briefly: Inhibition of the fibrotic process: αSMA staining in TGF-β1 treated fibroblasts. Particulars: Fibroblast, 96 h, LL29 fibroblasts treated with TGF-β1, 4 days. An excerpt: Representative compounds were screened using primary human fibroblasts (derived from IPF patients) treated with TGF-β1 to determine their ability to inhibit the fibrotic process.
Primary human fibroblasts derived from IPF patients (LL29 cells) [^1Xiaoqiu Liu, et. al., “Fibrotic Lung Fibroblasts Show Blunted Inhibition by cAMP Due to Deficient cAMP Response Element-Binding Protein Phosphorylation”, Journal of Pharmacology and Experimental Therapeutics (2005), 315(2), 678-687; ^2Watts, K. L., et. al., “RhoA signaling modulates cyclin D1 expression in human lung fibroblasts; implications for idiopathic pulmonary fibrosis”, Respiratory Research (2006), 7(1), 88] were obtained from American Type Culture Collection (ATCC) and expanded in F12 medium supplemented with 15% Fetal Bovine Serum and Penicillin/Streptomycin.
Each compound was dissolved in DMSO as a 10 mM stock and used to prepare compound source plates. Serial dilution (1:2, 11-point dose-response curves from 10 μM to 1.87 nM) and compound transfer was performed using the ECHO 550 (Labcyte, Sunnyvale, Calif.) into 384-well clear bottom assay plates (Greiner Bio-One) with appropriate DMSO backfill for a final DMSO concentration of 0.1%. LL29 cells are plated at 1,500 cells/well in 80 μL/well F12 medium supplemented with 1% Fetal Bovine Serum. One hour after addition of the cells, TGF-β1 (Peprotech; 20 ng/mL) was added to the plates to induce fibrosis (ref. 1 and 2 above). Wells treated with TGF-β1 and containing DMSO were used as controls. Cells were incubated at 37° C. and 5% CO2 for 4 days. Following incubation for 4 days, SYTOX green nucleic acid stain (Life Technologies [Thermo Fisher Scientific]) was added to the wells at a final concentration of 1 μM and incubated at room temperature for 30 min. Cells were then fixed using 4% formaldehyde (Electron Microscopy Sciences), washed 3 times with PBS followed by blocking and permeabilization using 3% Bovine Serum Albumin (BSA; Sigma) and 0.3% Triton X-100 (Sigma) in PBS. Cells were then stained with antibody specific to α-smooth muscle actin (αSMA; Abcam) (ref. 1 and 2 above) in 3% Bovine Serum Albumin (BSA; Sigma) and 0.3% Triton X-100 (Sigma) in PBS, and incubated overnight at 4° C. Cells were then washed 3 times with PBS, followed by incubation with Alexa Flor-647 conjugated secondary antibody (Life Technologies [Thermo Fisher Scientific]) and DAPI at room temperature for 1 hour. Cells were then washed 3 times with PBS and plates were sealed for imaging. αSMA staining was imaged by excitation at 630 nm and emission at 665 nm and quantified using the Compartmental Analysis program on the CellInsight CX5 (Thermo Scientific). Dead or apoptotic cells were excluded from analysis based on positive SYTOX green staining. % of total cells positive for αSMA were counted in each well and normalized to the average of 11 wells treated with TGF-β1 on the same plate using Dotmatics' Studies Software. The normalized averages (fold change over untreated) of 3 replicate wells for each compound concentration were used to create dose-responses curves and EC50 values were calculated using non-linear regression curve fit in the Dotmatics' Studies Software. For EC50 of >10 μM, the percent inhibition at 10 μM is provided.

Assay [3] relates to Wnt activity (Wnt-responsive human Sp5 promoter, TCF/LEF binding sites) in SW480 colon carcinoma cells. The assay is described as follows: Wnt activity screening assay: Sp5-Luc luciferase reporter gene in SW480 cells. Particulars: 10-point dose-response from 10 μM, incubated overnight. An excerpt: The screening assay for Wnt activity is described as follows. Reporter cell lines can be generated by stably transducing cancer cell lines (e.g., colon cancer) or primary cells (e.g., IEC-6 intestinal cells) with a lentiviral construct that includes a Wnt-responsive promoter driving expression of the firefly luciferase gene.
SW480 colon carcinoma cells were transduced with a lentiviral vector expressing luciferase with a human Sp5 promoter consisting of a sequence of eight TCF/LEF binding sites. SW480 cells stably expressing the Sp5-Luc reporter gene and a hygromycin resistance gene were selected by treatment with 150 μg/mL of hygromycin for 7 days. These stably transduced SW480 cells were expanded in cell culture and used for all further screening activities. Each compound was dissolved in DMSO as a 10 mM stock and used to prepare compound source plates. Serial dilution (1:3, 10-point dose-response curves starting from 10 μM) and compound transfer was performed using the ECHO 550 (Labcyte, Sunnyvale, Calif.) into 384-well white solid bottom assay plates (Greiner Bio-One) with appropriate DMSO backfill for a final DMSO concentration of 0.1%. For Sp5-Luc reporter gene assays, the cells were plated at 4,000 cells/well in 384-well plates with medium containing 1% fetal bovine serum and incubated overnight at 37° C. and 5% CO2. Following incubation, 20 μl of BrightGlo luminescence reagent (Promega) was added to each well of the 384-well assay plates. The plates were placed on an orbital shaker for 2 min and then luminescence was quantified using the Envision (Perkin Elmer) plate reader. Readings were normalized to DMSO only treated cells, and normalized activities were utilized for EC50 calculations using the dose-response log (inhibitor) vs. response-variable slope (four parameters) nonlinear regression feature available in GraphPad Prism 5.0 (or Dotmatics). For EC50 of >10 μM, the percent inhibition at 10 μM is provided.

For another assay, the system named is SW480 colon cancer cells. The assay is described as follows: Cell viability assay (CellTiter-Blue), four days. Particulars: Homo sapiens, 96 h, CellTiter-Blue cell viability. As for the experimental part: Representative compounds were screened using the following assay procedure to assess the effect on cell viability as described below.
Each compound was dissolved in DMSO as a 10 mM stock and used to prepare compound source plates. Serial dilution (1:3, 8-point dose-response curves from 10 μM to 0.0045 μM) and compound transfer was performed using the ECHO 550 (Labcyte, Sunnyvale, Calif.) into 96-well clear bottom, black-walled plates (Corning-Costar).
Approximately 2×10^3 SW480 colon cancer cells were seeded into each well and allowed to incubate in the presence or absence of compound for four days at 37° C./5% CO2. Eight replicates of DMSO-treated cells served as controls and cells treated with compound were performed in duplicate.
After incubation, 20 μL of CellTiter-Blue (Promega) was added to each well allowed to incubate for approximately 3 hours. This reagent was a buffered solution which contains resazurin, metabolically active cells were able to reduce rezarurin (blue) into resorufin (pink) which was highly fluorescent. This measured fluorescence was used as a readout for cell viability.
After incubation, the plates were read at Ex 560 nm Em 590 nm (Cytation 3, BioTek). Dose-response curves were generated and EC50 concentration values were calculated using non-linear regression curve fit in the GraphPad Prism (San Diego, Calif.) or Dotmatics' Studies Software (Bishops Stortford, UK). For EC50 of >10 μM, the percent inhibition at 10 μM is provided.
(Alamar Blue is a resazurin reagent that responds to reducing activity.)

In the case of `CN1CCN(c2nccc3[nH]c(-c4n[nH]c5ccc(-c6cncc(OCc7ccccc7)c6)nc45)nc23)CC1` [Compound 646, 5-(5-(Benzyloxy)pyridin-3-yl)-3-(4-(4-methylpiperazin-1-yl)-1H-imidazo[4,5-c]pyridin-2-yl)-1H-pyrazolo[4,3-b]pyridine], the EC50 was 1.49 µM in assay [1], 3.98 µM in assay [2], 3.85 µM in assay [3] and 3.13 µM in the assay with SW480 colon cancer cells.
For the compound `Cc1ncc(-c2ccc3[nH]nc(-c4nc5c(-c6cc(F)cc(NCCN(C)C)c6)nccc5[nH]4)c3n2)n1C` [Compound 781, N^1-(3-(2-(5-(1,2-Dimethyl-1H-imidazol-5-yl)-1H-pyrazolo[4,3-b]pyridin-3-yl)-1H-imidazo[4,5-c]pyridin-4-yl)-5-fluorophenyl)-N^2,N^2-dimethylethane-1,2-diamine], the EC50 worked out at 3.91 µM in assay [1], 3.1 µM in assay [2], 1.88 µM in assay [3] and 6.55 µM with SW480 colon cancer cells.
Turning to `CN(C)CCNc1cc(F)cc(-c2nccc3[nH]c(-c4n[nH]c5ccc(-c6cncc(OCc7ccccc7)c6)nc45)nc23)c1` [Compound 790, N^1-(3-(2-(5-(5-(Benzyloxy)pyridin-3-yl)-1H-pyrazolo[4,3-b]pyridin-3-yl)-1H-imidazo[4,5-c]pyridin-4-yl)-5-fluorophenyl)-N^2,N^2-dimethylethane-1,2-diamine], the EC50 is 0.038 µM in assay [1], 3.17 µM in assay [2], 1.11 µM in assay [3] and 1.57 µM in the assay with SW480 colon cancer cells.
For `C1=C(c2ccc3[nH]nc(-c4nc5c(-c6ccc7c(c6)OCO7)nccc5[nH]4)c3n2)CCNC1` [Compound 1109, 3-(4-(Benzo[d][1,3]dioxol-5-yl)-1H-imidazo[4,5-c]pyridin-2-yl)-5-(1,2,3,6-tetrahydropyridin-4-yl)-1H-pyrazolo[4,3-b]pyridine], the EC50 is 0.154 µM in assay [1], 3.85 µM in assay [2], 0.652 µM in assay [3] and 3.41 µM in the assay with SW480 colon cancer cells.

What is called EC50 is the concentration needed to bring the measured effect to its halfway point. Higher therefore signals lower potency in that assay.
